Measured values taken from ChEMBL document CHEMBL4385661, “An investigation of targeted inhibition of transcription factor activity with pyrrole imidazole polyamide (PA) in chronic myeloid leukemia (CML) blast crisis cells” (2019).
The source made the active and inactive calls. The rule behind the calls is not given here.

Tests used:
KCL-22 [1] = assay: Inhibition of cell expansion in human KCL22 cells at 10 nM incubated for 48 hrs by trypan blue dye exclusion counting method; type: functional, cell-based
KCL-22 [2] = assay: Induction of cell cycle arrest in human KCL22 cells assessed as accumulation at subG0 phase at 3 uM incubated for 72 hrs by propidium iodide staining based flow cytometry analysis (reference value: 3.91%); type: functional
Homo sapiens [3] = organism: Homo sapiens; assay: Binding affinity to E2F1 consensus sequence DNA in human KCL22 cells assessed as reduction in PET112L gene expression at 3 uM incubated for 24 hrs by RT-qPCR analysis relative to control; type: cell-based
Homo sapiens [4] = organism: Homo sapiens; assay: Binding affinity to E2F1 consensus sequence DNA in human KCL22 cells assessed as reduction in MCM2 gene expression at 3 uM incubated for 24 hrs by RT-qPCR analysis relative to control; type: cell-based
KCL-22 [5] = assay: Inhibition of cell expansion in human KCL22 cells assessed as combination index at 3 uM incubated for 48 hrs in presence of 10 nM nilotinib by trypan blue dye exclusion counting method; type: functional
KCL-22 [6] = assay: Up-regulation of RARS2 gene expression in human KCL22 cells at 3 uM incubated for 24 hrs by RT-qPCR analysis relative to control; type: functional, cell-based
KCL-22 [7] = assay: Induction of cell cycle arrest in human KCL22 cells assessed as accumulation at G2-M phase at 3 uM incubated for 72 hrs by propidium iodide staining based flow cytometry analysis (reference value: 14%); type: functional
Homo sapiens [8] = organism: Homo sapiens; assay: Binding affinity to E2F1 consensus sequence DNA in human KCL22 cells assessed as reduction in PSMB8 gene expression at 3 uM incubated for 24 hrs by RT-qPCR analysis relative to control; type: cell-based
Homo sapiens [9] = organism: Homo sapiens; assay: Binding affinity to E2F1 consensus sequence DNA in human KCL22 cells assessed as reduction in GNA13 gene expression at 3 uM incubated for 24 hrs by RT-qPCR analysis relative to control; type: cell-based
Homo sapiens [10] = organism: Homo sapiens; assay: Binding affinity to E2F1 consensus sequence DNA in human KCL22 cells assessed as reduction in MRRF gene expression at 3 uM incubated for 24 hrs by RT-qPCR analysis relative to control; type: cell-based
Homo sapiens [11] = organism: Homo sapiens; assay: Binding affinity to E2F1 consensus sequence DNA in human KCL22 cells assessed as reduction in SF3B4 gene expression at 3 uM incubated for 24 hrs by RT-qPCR analysis relative to control; type: cell-based
Homo sapiens [12] = organism: Homo sapiens; assay: Binding affinity to E2F1 consensus sequence DNA in human KCL22 cells assessed as reduction in ZNF354B gene expression at 3 uM incubated for 24 hrs by RT-qPCR analysis relative to control; type: cell-based
KCL-22 [13] = assay: Up-regulation of TRIM45 gene expression in human KCL22 cells at 3 uM incubated for 24 hrs by RT-qPCR analysis relative to control; type: functional, cell-based
KCL-22 [14] = assay: Induction of cell cycle arrest in human KCL22 cells assessed as accumulation at G0-G1 phase at 3 uM incubated for 72 hrs by propidium iodide staining based flow cytometry analysis (reference value: 57.4%); type: functional
KCL-22 [15] = assay: Inhibition of cell expansion in human KCL22 cells at 0.3 to 3 uM incubated for 48 hrs by trypan blue dye exclusion counting method; type: functional, cell-based
KCL-22 [16] = assay: Inhibition of cell expansion in human KCL22 cells at 3 uM incubated for 48 hrs in presence of 10 nM nilotinib by trypan blue dye exclusion counting method; type: functional, cell-based
KCL-22 [17] = assay: Induction of cell cycle arrest in human KCL22 cells assessed as accumulation at S phase at 3 uM incubated for 72 hrs by propidium iodide staining based flow cytometry analysis (reference value: 23.7%); type: functional

Cc1cn(-c2cc(NC(=O)c3ccc(C)c(Nc4nccc(-c5cccnc5)n4)c3)cc(C(F)(F)F)c2)cn1
inhibition (KCL-22 [1]): Active

CN(C)CCCNC(=O)c1cc(NC(=O)c2cc(NC(=O)c3cc(NC(=O)c4cc(NC(=O)[C@H](N)CCNC(=O)c5nc(NC(=O)c6nc(NC(=O)c7cc(NC(=O)c8nccn8C)cn7C)cn6C)cn5C)cn4C)cn3C)cn2C)cn1C
Activity (KCL-22 [2]): 3.84%
Activity (Homo sapiens [3]): Active
Activity (Homo sapiens [4]): Active
CI (KCL-22 [5]): >1
Activity (KCL-22 [6]): Active
Activity (KCL-22 [7]): 10.8%
Activity (Homo sapiens [8]): Active
Activity (Homo sapiens [9]): Active
Activity (Homo sapiens [10]): Active
Activity (Homo sapiens [11]): Active
Activity (Homo sapiens [12]): Active
Activity (KCL-22 [13]): Active
Activity (KCL-22 [14]): 58.1%
inhibition (KCL-22 [15]): Active
inhibition (KCL-22 [16]): Active
Activity (KCL-22 [17]): 26.4%
